Data taken from patent US4265912A, “Glaucine lactate salts” (priority 1979, dated 1981).
Counter-ions that a name gives are not always drawn. Like-named read-outs stand apart in the source and are kept apart here.

Assays:
mice = type: in vivo; settings: for stimulation and Straub tail: mouse, in vivo, 100 mg/kg; for mice jumping after naloxone: naloxone 100 mg/kg intraperitoneal after increasing doses on two consecutive days
Method: Physical dependency liability was evaluated in mice by the procedure of Saelens, et al., Arch. Int. Pharmacodynam, 190:213-218, 1971. In this procedure, mice are administered increasing doses of a test compound at intervals on two consecutive days. The last dosage on the second day is followed by intraperitoneal injection of the morphine antagonist, naloxone, at a dosage of 100 mg/kg, and the mice are observed for characteristic jumping behaviour indicative of opiate withdrawals or morphine antagonism.

[1] = type: physicochemical; settings: syrup; for percent of original concentration retained after one month: 0.6 percent d,l-glaucine lactate, 0.2 percent codeine phosphate or d,l-glaucine hydrobromide, 43800 min; for Percentage Remaining after 3 months at 40° C. / Percentage Remaining after 3 months at 55° C. / Percentage Remaining after 3 months at Ambient: 131400 min
Method: Stability of d,l-glaucine lactate was examined in the syrup vehicle of Example 4.
Syrups containing codeine phosphate, 0.2 percent, contained 97.5, 104.5 or 100 percent, respectively, after one month at ambient temperature, 40° C. or 55° C. […] After three months, the percentage amount of antitussive agent remaining was as shown below

[2] = solubility in cough syrup vehicle; type: physicochemical; settings: cough syrup vehicle of Example 4
Method: A cough syrup vehicle formulation was prepared containing the following pharmaceutically-acceptable excipients: […]

[3] = stability of syrup with continuous exposure to light in amber and flint glass bottles; type: physicochemical; settings: for assay after one month with continuous exposure to light, amber glass bottles / assay after one month with continuous exposure to light, flint glass bottles: ambient temperature, about 2000 Foot-candles, 24 hours/day, 43800 min; for assay after one month with continuous exposure to light, flint glass bottles: transparent (flint) glass
Method: In a procedure similar to that of Example 5, syrup formulations were prepared, placed in amber glass bottles and transparent (flint) glass bottles, and held under conditions of ambient temperature with continuous exposure to light. (About 2000 Foot-candles of combined fluorescent and incandescent light, for 24 hours/day.)

[4] = test system: guinea pigs (coughing, citric acid aerosol); assay: antitussive activity, citric acid aerosol test, intraperitoneal injection; type: in vivo; settings: Cavia porcellus, ip
Method: Separate groups of guinea pigs were orally administered various doses of a test compound, or distilled water for a control group. One hour after oral dosing, the guinea pigs were exposed to a 5 percent aerosol of citric acid for a 10 minute test period. The number of cough responses produced during the last five minutes of exposure to the citric acid aerosol was recorded and the dosage effect to suppress coughing in 50 percent of the guinea pigs (ED50) was calculated. An antitussive effect was recorded for a guinea pig when its total number of coughs during the 5 minute test period were at least two standard deviation units below the mean number of coughs per guinea pig in the control group. […]; In an operation similar to that of Example 2, test compounds were administered to guinea pigs by intraperitoneal injection, with one group of guinea pigs receiving distilled water as a control. ED50 's were calculated for antitussive activity in the citric acid aerosol test as described in Example 2. […];

[5] = stability of crystalline d,l-glaucine lactate on storage; type: physicochemical; settings: crystalline solid, 2 months storage at 40° C., read-out: percent of original assay retained, crystalline solid
[6] = test system: guinea pigs (coughing, citric acid aerosol); assay: antitussive activity, citric acid aerosol test, oral; type: in vivo; settings: Cavia porcellus, 1 h, 5 percent citric acid aerosol one hour after dosing
Method: Separate groups of guinea pigs were orally administered various doses of a test compound, or distilled water for a control group. One hour after oral dosing, the guinea pigs were exposed to a 5 percent aerosol of citric acid for a 10 minute test period. The number of cough responses produced during the last five minutes of exposure to the citric acid aerosol was recorded and the dosage effect to suppress coughing in 50 percent of the guinea pigs (ED50) was calculated. An antitussive effect was recorded for a guinea pig when its total number of coughs during the 5 minute test period were at least two standard deviation units below the mean number of coughs per guinea pig in the control group. […];

[7] = test system: mouse (phenyl-p-quinone writhing); assay: analgesic activity, phenyl-p-quinone mouse writhing test; type: in vivo; settings: oral, 30 minutes prior to phenyl-p-quinone challenge
Method: Test compounds were evaluated for analgesic activity in the phenyl-p-quinone mouse writhing test of Hendershot & Forsaith, J. Pharmacol. Exptl. Therap. 125(3) 237 (1959). The test compounds were administered orally 30 minutes prior to the phenyl-p-quinone challenge.

SMILES | stimulation and Straub tail (mice) | mice jumping after naloxone (mice) | ED50 [4] [mg/kg] | percent of original concentration retained after one month ([1]; 40° C.) [%] | percent of original concentration retained after one month ([1]; 55° C.) [%] | percent of original concentration retained after one month ([1]; ambient temperature) [%] | Percentage Remaining after 3 months at 40° C. ([1]; 40° C.) [%] | Percentage Remaining after 3 months at 55° C. ([1]; 55° C.) [%] | Percentage Remaining after 3 months at Ambient [1] [%] | assay after one month with continuous exposure to light, amber glass bottles [3] [%] | assay after one month with continuous exposure to light, flint glass bottles [3] [%] | ED50 [6] [mg/kg] | ED50 [7] [mg/kg] | further results
COc1cc2c(cc1OC)-c1c(OC)c(OC)cc3c1C(C2)N(C)CC3 (racemic) [d,l-Glaucine lactate (2:3)] | no Straub tail | no jumping behaviour in any of the ten mice | – | – | – | – | – | – | – | – | – | – | – | –
COc1cc2c(cc1OC)-c1c(OC)c(OC)cc3c1C(C2)N(C)CC3 (racemic) [d,l-glaucine hydrobromide] | – | – | – | – | – | – | – | – | – | – | – | – | – | percent of original concentration retained after one month ([1]; 40° C., hydrobromide): 96%; percent of original concentration retained after one month ([1]; 55° C., hydrobromide): 89.5%; percent of original concentration retained after one month ([1]; ambient temperature, hydrobromide): 99%; Percentage Remaining after 3 months at 40° C. ([1]; 40° C., listed as d,l-Glaucine . HBr, hydrobromide): 93.3%; Percentage Remaining after 3 months at 55° C. ([1]; 55° C., listed as d,l-Glaucine . HBr, hydrobromide): 91.4%; Percentage Remaining after 3 months at Ambient ([1]; listed as d,l-Glaucine . HBr, hydrobromide): 100.8%; solubility in cough syrup vehicle ([2]; hydrobromide): 0.3%; solubility in cough syrup vehicle per 5 milliliter dosage unit ([2]; hydrobromide): about 15 milligrams per 5 milliliter dosage unit; assay after one month with continuous exposure to light, amber glass bottles ([3]; hydrobromide): 84%; assay after one month with continuous exposure to light, flint glass bottles ([3]; hydrobromide): 74.5%
COc1cc2c(cc1OC)-c1c(OC)c(OC)cc3c1C(C2)N(C)CC3 (racemic) [d,l-glaucine lactate] | – | – | 7.9 | 100.6 | 96.7 | 98.8 | 97.0 | 97.4 | 104.1 | 94 | 80.6 | 63.4 | 25.5 | remaining at 1460 h [5]: > 99%; solubility in cough syrup vehicle [2]: 2%; solubility in cough syrup vehicle per 5 milliliter dosage unit [2]: about 100 milligrams per 5 milliliter dosage unit
COc1ccc2c3c1O[C@H]1[C@@H](O)C=C[C@H]4[C@@H](C2)N(C)CC[C@@]341 [codeine phosphate] | Straub tail and stimulation | 2 of 6 | 10.9 | 104.5 | 100 | 97.5 | 101.1 | 88.4 | 101.3 | 100 | 100 | 86.6 | 21.2 | total number of jumps after naloxone (mice; naloxone 100 mg/kg intraperitoneal): 23 jumps total; stability in both types of container ([3]; amber and flint glass, light, one month): appeared stable in both types of container
COc1cc2c(cc1OC)-c1c(OC)c(OC)cc3c1[C@H](C2)N(C)CC3 [d-glaucine hydrobromide] | – | – | 10 | – | – | – | – | – | – | – | – | 89 | 34 | –
